Results on 3 compounds are retold here after publication PMC11077991, “The small molecule CBR-5884 inhibits the Candida albicans phosphatidylserine synthase” (mBio, 2024).

For experiment [1], the system named is C. albicans strains GDH2346, 3153A, TFPY412 and TFPY2307. Kind of experiment: CLSI MIC broth microdilution, additional wild-type strains. It counts as cell-based, Candida albicans. The following applies: RPMI MOPS pH 7.0, 37°C, 48 h. The protocol:
Furthermore, there are no current reports on the antifungal effects of LOC14 and CBR-5884. To rule out the possibility that their inhibition is strain-specific, we treated four additional C. albicans wildtype strains—GDH2346 ([54]), 3153A ([55]), and two clinical isolates TFPY412 and TFPY2307—with LOC14 and CBR-5884. Tests were done in RPMI MOPS (pH 7.0) medium at 37°C for 48 h following the CLSI MIC broth microdilution protocol, and a cho1ΔΔ strain was included as a control (Fig. 3E and F).
Minimum inhibitory concentration (MIC) was determined following Clinical & Lab Standards Institute (CLSI) MIC broth microdilution protocol (Licensed to Todd Reynolds, license # Ord-1138682) ([98], [99]). Briefly, stock solutions of different compounds (purchased from MedChemExpress) were prepared at a concentration of 10 mM in DMSO and subsequently diluted as required in the same solvent. Wild-type C. albicans strain SC5314, as well as four additional wild-type strains—GDH2346, 3153A, TFPY412, and TFPY2307, were cultured overnight in YPD medium at 30°C, washed with water three times, and then diluted to a concentration of 2 × 10^3 cells/mL (OD600 = 0.00008) in one of the three media [minimal medium, minimal medium buffered with 50 mM HEPES (pH 7.0) and RPMI MOPS (pH 7.0)]. The cho1ΔΔ strain was also included as a control. […]
(Broth dilution looks for growth in wells or tubes with falling amounts of substance.)

Experiment [2] deals with wild-type C. albicans strain SC5314. Kind of experiment: plate assays, CFU counting and growth curves in minimal media. The class given is cell-based, Candida albicans. To be noted: for fungistatic or fungicidal effect (CFUs vs pre-incubation): 30 µM ebselen, 430 µM LOC14, 170 µM CBR-5884; for fungistatic or fungicidal effect (CFUs vs pre-incubation) / rescue of CFUs by 1 mM ethanolamine: 24 h; for rescue of CFUs by 1 mM ethanolamine: optimized drug concentrations (CBR-5884 ≥170 µM), minimal medium. The protocol: The antifungal effects of ebselen, LOC14 ,and CBR-5884 on live cells were further evaluated by plate assays and growth curves. First, we tried to determine if the inhibitory effects of these compounds were fungistatic or fungicidal. It should be highlighted that in contrast to the MIC assays, the plate assays and growth curve analyses necessitated a greater initial inoculum (OD600 of 0.05 as opposed to 0.00004) for detection. Additionally, a reduced incubation temperature of 30°C instead of 37°C was required to inhibit the hyphal formation, which, in turn, required the adjustment of compound concentrations used. For this, wild-type C. albicans strain SC5314 was grown with varying concentrations of ebselen, LOC14, and CBR-5884 in minimal media at 30°C for 24 h, along with a cho1ΔΔ strain as a control. […] To further determine the optimized inhibitory concentrations and whether the inhibition is fungistatic or fungicidal, wild-type C. abicans SC5314 was then incubated with ebselen, LOC14, and CBR-5884 in a dosage series with 10 µM increments within the inhibition range determined above, and colony forming units (CFUs) were counted after 24 h incubation.
Plate assays and growth curves were conducted in minimal media or minimal media supplemented with 1 mM ethanolamine (ETA). Wild-type SC5314 and cho1ΔΔ strains were grown in YPD overnight and washed three times with H2O before inoculation. The starting OD600 is 0.05 for both plate assays and growth curves. For plate assays, both wild-type and cho1ΔΔ strains were grown in flat-bottom 96-well plates at a final volume of 200 µL, in the presence of different compounds or DMSO as indicated at 30°C. The final DMSO concentration was maintained at 2.5% across all treatments. A Leica inverted microscope was then used to visualize growth after 24 h incubations. In the meantime, cells grown in different compounds were subjected to live cell counting. Cell cultures from flat-bottom 96-well plates after 24 h incubation were diluted 100–10,000 times before plating on the minimal media, and the total colony-forming unit (CFU) was kept within 200 for each plate. A total of six biological replicates were done in each condition.
The growth curves with LOC14 and CBR-5884 treatments were measured from 2 to 30 h with OD600 measurements every 2 h. A final concentration of 170 µM CBR-5884, 430 µM LOC14, and 5 mM serine was added into each group as indicated. To test the stability of CBR-5884, minimal medium supplemented with 170 µM CBR-5884 or equivalent DMSO was agitated for 12 h before the introduction of wildtype C. albicans SC5314 strain, and growth curves were recorded from 0 to 14 h with OD600 measurement every 2 h. To check the resistance of C. albicans in CBR-5884, SC5314 strain was grown in 170 µM CBR-5884 for 12 and 24 h before being diluted in fresh minimal medium supplemented with fresh 170 µM CBR-5884 or equivalent DMSO. The growth curves were recorded from 0 to 14 h with OD600 measurement every 2 h. The final DMSO concentration was maintained at 1.7% across all treatments.

Experiment [3] shares this test system. Kind of experiment: CLSI MIC broth microdilution. It counts as cell-based, Candida albicans. The following applies: Candida albicans. As for the experimental part: We then tested the effects of the six compounds on live cells by determining the minimal inhibitory concentrations (MICs) of these compounds. Following the standard Clinical & Lab Standards Institute (CLSI) MIC broth microdilution methods, wild-type C. albicans strain SC5314 was grown with avasimibe, CBR-5884, tideglusib, ebselen, ML-345, and LOC14 in RPMI MOPS medium (pH 7.0) or alternatively in minimal medium or minimal medium with HEPES (pH 7.0) at 37°C for 48 h, along with a cho1ΔΔ strain as a control (Fig. 3A through C). The concentration of the compounds was varied from 0.5 to 250 µM. […] Ebselen, LOC14, and CBR-5884, on the contrary, stopped cell growth at different concentrations in all three media, with MICs ranging between 7.8 and 31.3 μM (Fig. 3A through D). […] Specific MIC values are summarized in Fig. 3D for all the compounds.
Minimum inhibitory concentration (MIC) was determined following Clinical & Lab Standards Institute (CLSI) MIC broth microdilution protocol (Licensed to Todd Reynolds, license # Ord-1138682) ([98], [99]). Briefly, stock solutions of different compounds (purchased from MedChemExpress) were prepared at a concentration of 10 mM in DMSO and subsequently diluted as required in the same solvent. Wild-type C. albicans strain SC5314, as well as four additional wild-type strains—GDH2346, 3153A, TFPY412, and TFPY2307, were cultured overnight in YPD medium at 30°C, washed with water three times, and then diluted to a concentration of 2 × 10^3 cells/mL (OD600 = 0.00008) in one of the three media [minimal medium, minimal medium buffered with 50 mM HEPES (pH 7.0) and RPMI MOPS (pH 7.0)]. The cho1ΔΔ strain was also included as a control. A volume of 100 µL from each cell suspension was dispensed into the wells of a flat-bottom 96-well plate. An additional 100 µL of corresponding medium, containing twice the final desired concentration of each drug, was added to each well, leading to a final initial inoculum of 1 × 10^3 cells/mL (OD600 = 0.00004). The final DMSO concentration was maintained at 2.5% across all treatments. Following preparation, the plates were incubated at 37°C for 48 h and photos were taken with a Bio-Rad Gel Doc XR + Imaging System.

Experiment [4] relates to cancer cell lines with high serine biosynthetic activity (melanoma and breast cancer lines). Set-up: method as in PMID 26831078. The following applies: cited from earlier work.
[5] abbreviates: SC5314, 48 h, pH 7, read-out: Minimal Inhibitory Concentration (MIC): MM, HEPES 7.0.
[6] abbreviates: SC5314, 48 h, pH 7, read-out: Minimal Inhibitory Concentration (MIC): RPMI, MOPS 7.0.
Where [7] appears, read: SC5314, 48 h, read-out: MICs across all three media.
Setting [8] is: SC5314, 48 h, read-out: Minimal Inhibitory Concentration (MIC): MM.

In brackets after ≈: the same amount, converted by molar mass. Like-named read-outs stand apart in the source and are kept apart here.

In the case of `O=C(C1CC1)N1CCN(Cn2sc3ccccc3c2=O)CC1` [LOC14], in experiment [1], the “growth inhibition of four additional wild-type strains” value is reported as “all strains were inhibited”. For the same compound, the “fungistatic or fungicidal effect (CFUs vs pre-incubation)” value in experiment [2] is “fungistatic effect”. Also, the “growth curve in presence or absence of ethanolamine” value in experiment [2] (430 µM LOC14, 0-30 h) is recorded as “no cells grew”. In experiment [2], the “rescue of CFUs by 1 mM ethanolamine” value is listed as “did not rescue”. For the same compound, the MIC in experiment [3] (setting [5]) is 15.6 µM (≈ 4.95 µg/mL); in experiment [3] (setting [6]), 31.3 µM (≈ 9.94 µg/mL); in experiment [3] (setting [7]), 7.8 to 31.3 µM (≈ 2.48 to 9.94 µg/mL); in experiment [3] (setting [8]), 15.6 µM (≈ 4.95 µg/mL).
`CCOC(=O)c1sc(NC(=O)c2ccco2)c(SC#N)c1C` [CBR-5884]: the “growth inhibition of four additional wild-type strains” value in experiment [1] was “all strains were inhibited”. Moreover, the “toxicity to cancer cell lines” value in experiment [4] is on record as “selectively toxic”. The “fungistatic or fungicidal effect (CFUs vs pre-incubation)” value in experiment [2] is recorded as “fungistatic effect”. In experiment [2] (170 µM CBR-5884, 1 mM ethanolamine), the “effect of ethanolamine on growth rate and lag time” value was “significantly increased the growth rate and decreased the lag time”. The “effect of 5 mM serine on growth inhibition” value in experiment [2] (170 µM CBR-5884, growth curve 0-30 h) is recorded as “serine did not help the cells recover”. Besides, the “duration of growth delay” value in experiment [2] (170 µM CBR-5884, minimal medium, 30°C) came to 12 h. In experiment [2], the “rescue of CFUs by 1 mM ethanolamine” value is listed as “significantly higher CFUs”. Moreover, the MIC in experiment [3] (setting [5]) is 31.3 µM (≈ 10.5 µg/mL); in experiment [3] (setting [6]) it was 31.3 µM (≈ 10.5 µg/mL); in experiment [3] (setting [7]), 7.8 to 31.3 µM (≈ 2.62 to 10.5 µg/mL); in experiment [3] (setting [8]), 7.8 µM (≈ 2.62 µg/mL).
Consider `O=c1c2ccccc2[se]n1-c1ccccc1` [Ebselen], for which the “CFU/μL after 24 h incubation with ethanolamine” value in experiment [2] (30 µM ebselen + 1 mM ETA) is recorded as 0 CFU/μL. The “fungistatic or fungicidal effect (CFUs vs pre-incubation)” value in experiment [2] is “fungicidal effect”. Also, the “rescue of CFUs by 1 mM ethanolamine” value in experiment [2] was “did not rescue”. In addition, the MIC in experiment [3] (SC5314, RPMI MOPS pH 7.0, 37°C, 48 h, read-out: Minimal Inhibitory Concentration (MIC): RPMI, MOPS 7.0) was 7.8 µM (≈ 2.14 µg/mL); in experiment [3] (SC5314, minimal medium with 50 mM HEPES pH 7.0, 37°C, 48 h, read-out: Minimal Inhibitory Concentration (MIC): MM, HEPES 7.0), 15.6 µM (≈ 4.28 µg/mL); in experiment [3] (SC5314, minimal medium, 37°C, 48 h, read-out: Minimal Inhibitory Concentration (MIC): MM) it was 7.8 µM (≈ 2.14 µg/mL); in experiment [3] (SC5314, minimal medium, minimal medium HEPES, RPMI MOPS, 37°C, 48 h, read-out: MICs across all three media) it was 7.8 to 31.3 µM (≈ 2.14 to 8.58 µg/mL).
